# According to publication PMC3330251 (Journal of Medicinal Chemistry, 2012):
# What was measured:
# [1] = cited from earlier work
# [2] = human liver microsomes; cited from earlier work
# [3] = tested on: potassium ion channel coded by hERG; conditions: compound concentration as high as 300 µM; cited from earlier work
# [4] = tested on: L. donovani (axenic amastigote stage, MHOM-ET-67/L82); conditions: relative to 1d
# [5] = tested on: P. falciparum (erythrocytic stage, K1 strain); conditions: relative to the standard (chloroquine)
compound,measurement,setting,value
"CCc1ccc(C(=O)NC(=O)c2ccccc2O)cc1 [Compound 1a, N-(4-Ethylbenzoyl)-2-hydroxybenzamide]",protein binding in human plasma,[1],99.9%
same,intrinsic clearance / metabolism rate in HLM,[2],282 µL/min/mg proteins
same,hERG inhibition,[3],not inhibited
"O=C(NC(=O)c1ccccc1O)c1ccc(C(F)(F)F)cc1 [Compound 1g, 2-Hydroxy-N-(4-(trifluoromethyl)benzoyl)benzamide]",times less potent than 1d against L. donovani,[4],4 times
"O=C(NC(=O)c1ccccc1O)c1ccc2ccccc2c1 [Compound 1t, N-(2-Hydroxybenzoyl)-2-naphthamide]",fold less active than the standard against malaria parasites,[5],2 fold
"OC(Cn1cncn1)(Cn1cncn1)c1ccc(F)cc1F [fluconazole, reference compound]",protein binding in human plasma,[1],23.7%
